From patent US11473088B2, “Method of treating cancer and method of sensitizing cancer cells to the action of chemotherapeutic agents via growth hormone receptor antagonists or knock down” (Ohio University, priority 2016, dated 2022)

Experiments:
SK-HEP-1 cells = experiment: RT-qPCR after GH / GHR-antagonist treatment; type: cell-based, human; conditions: 50 ng/mL GH, 3 days
Method: Following treatments, cells were lysed, and RNA extraction was performed using IBI Tri-isolate kit (IBI), following manufacturer's protocol. RT-qPCR was performed as described previously.
The inventors had previously shown that knock-down of GHR in turn strongly attenuates MET as well as HGF transcript levels in human melanoma. To verify this observation in another GHR expressing human cancer like HCC, the inventors analyzed the effects of GH and GHR-antagonist treatment on the expression of the oncogenic HGF-MET loop in human liver cancer cells. HepG2 and SK-HEP-1 cells were treated for 3 days with either 50 ng/mL GH (2.5 nM), or 50 nM GHR-antagonist, or both, and their RNA expressions were compared against untreated controls at basal levels (i.e. no drug treatment). No additional effect of added GH on the expression levels of HGF or MET in the liver cancer cell lines was observed, except a 2-fold increase in MET levels in SK-HEP-1 cells (FIG. 39). […] Irrespective of presence of added GH, the antagonist lowered HGF levels by >4-fold in Hep-G2 cells and up to 2-fold in SK-HEP-1 cells; while the MET levels were decreased by >2-fold in both Hep-G2 and SK-HEP-1 cells compared to the GH treated samples (FIG. 39). […]

human melanoma cells = experiment: RT-qPCR of RNA levels after hGH addition or GHR-KD; type: cell-based
Method: (§1) For hGH treatment, 16 hours after seeding (or 24 hours post-transfection), the cells were serum-starved for 2 hours in serum-free growth media, and hGH (phosphate buffered saline was used as control where applicable) was added at the noted concentrations (0-, 5-, 50-, and 150 ng/ml). Cells were subsequently incubated for 24 hours before evaluating RNA levels. Recombinant hGH was purchased from Antibodies Online (#ABIN2017921, Atlanta, Ga.).
Transfection was performed using siLentFect lipid reagent (Biorad #170-3360, Hercules, Calif.) following the manufacturer's protocol. […] Mock transfections were performed using universal scrambled negative control siRNA-duplex (Origene #SR30004). TYE-563-fluorescent labeled siRNA duplex (Origene #SR30002) was used as the transfection control. Cells were trypsinized, counted using a Countess Automated Cell Counter (Life Technologies, Carlsbad, Calif.), and seeded at 25,000-30,000 cells/cm^2, the cells being allowed to attach for 16-18 hours. The growth media was replaced with fresh antibiotic free complete growth medium just prior to transfection. […] Media was changed to complete growth medium plus antibiotics after 24 hours. RNA levels were analyzed 48 hours post-transfection, and protein levels were analyzed at 60 hours post-transfection.
RNA extraction was performed using the IBI-Trizol based total RNA purification kit (MidSci #IB47632, St. Louis, Mo.), and reverse transcription was performed using Maxima First Strand cDNA synthesis kit (Thermo Fisher Scientific #K1642, Waltham, Mass.) following the manufacturers' protocols. Real time-quantitative PCR and melt curve analysis were performed using Maxima SYBR-Green qPCR master mix (Thermo Fisher Scientific #K0241) and a T100 thermal cycler (Biorad #1861096, Hercules, Calif.). RNA and DNA concentrations were estimated using a Nanodrop2000 (Thermo Fisher Scientific, Waltham, Mass.) spectrophotometer. Primers were obtained from Sigma-Aldrich for the following human genes, with primer efficiency being experimentally confirmed: GAPDH, b-Actin, GHR, GHRHR, SOCS2, IGF1, IGF1R, IGF2, IGF2R, PRL, PRLR, insulin (Ins), IR, IGFBP2, IGFBP3, EGFR, HGF, cMET and ERBB3. Each sample represented a pool of two replicates per experiment. Experiments were performed at least three times. Each qPCR for individual genes and every treatment for every cell type was performed in triplicates.
And so—referring now to FIGS. 12A-12B, 17A-17C, 18A-18F, 19A-19F, and 20A-20F—RT-qPCR analysis of GH-IGF axis in human melanoma cells (FIGS. 12A-12B) and RT-qPCR analysis of GH-GHR and PRL-PRLR pairs in human melanoma cells (FIGS. 17A-17C) was performed. […] The percentage free area at the end time point was calculated using ImageJ software and reflected the decrease/inhibition in migration. […]

MALME-3M cells = experiment: Cell proliferation (resazurin) assay; type: cell-based, human; conditions: 48 hr
Method: as §1
On the other hand, a pronounced drop in proliferation levels in all the cell lines was seen when GHR was knocked down. […] Cell proliferation was estimated using resazurin-based metabolic assay. […] Averages of at least four independent experiments performed in quadruplicate were taken [*, p<0.05, Students t-test]. The results may indicate that human melanoma cells utilize GH-GHR interaction to drive aggressive tumor phenotypes.
To determine this, and referring now to FIGS. 35A-35D, changes in amounts of calcein retained inside cells following treatment with calcein-AM ester was analyzed by the fluorescence readout from intracellular calcein. Increased abundance of transporter pumps is reflected by decreased levels of intracellular calcein. […] Assays were performed 48 hr. post-transfection with either scr-siRNA or GHR-siRNA. […] SK-MEL-28 (FIG. 35C) and MALME-3M (FIG. 35D) cells were exposed to DMSO (vehicle), or 10 um cisplatin (Cis), or 5 nM paclitaxel (Pac) for 24 hr. Treatments were done 48 hr. post-transfection with either scr-siRNA (scr) or GHR-siRNA (GHR). Mean of three independent experiments performed in triplicate was taken. [*, p<0.05, Students t test, n=3]

[1] = SK-MEL-28 and MALME-3M, maximum GH concentrations

Which “increase in MET levels” value (SK-HEP-1 cells) does the source give for “hGH: Recombinant human growth hormone, Antibodies Online #ABIN2017921” here?
The value was 2 fold.

What about the “level of decrease of some ABC-transporters in presence of GH” value (human melanoma cells; 50 ng/mL GH, with anti-cancer drugs) of the same substance?
The value was about 2 fold.

What about the “ERBB3 RNA levels” value (human melanoma cells; GH stimulation or GHR-KD) of the same substance?
Its value is “upregulation”.

And the “HGF expression level upregulated with added GH” value (human melanoma cells; [1])?
The value was “more than 2 fold”.

And the “MET expression level upregulated with added GH” value (human melanoma cells; [1])?
The value was “more than 2 fold”.

And the “Cell proliferation induced by hGH-excess (increase)” value (MALME-3M cells; 50 ng/ml hGH)?
The value was 248%.

And the increase in proliferation (MALME-3M cells; 150 ng/mL hGH)?
Its increase in proliferation is “more than 300%”.
